Target: T1, TomLOXF (Solanum lycopersicum, UniProt C0KKU8)
T1 construct: gene loxF; predicted chloroplast transit peptide (54 residues, ChloroP) excluded; N-terminal His tag of pET28-a kept; E. coli BL21; about 100 kDa; full precursor 903 residues; partially purified on nickel
T1 sequence (C0KKU8 55-902): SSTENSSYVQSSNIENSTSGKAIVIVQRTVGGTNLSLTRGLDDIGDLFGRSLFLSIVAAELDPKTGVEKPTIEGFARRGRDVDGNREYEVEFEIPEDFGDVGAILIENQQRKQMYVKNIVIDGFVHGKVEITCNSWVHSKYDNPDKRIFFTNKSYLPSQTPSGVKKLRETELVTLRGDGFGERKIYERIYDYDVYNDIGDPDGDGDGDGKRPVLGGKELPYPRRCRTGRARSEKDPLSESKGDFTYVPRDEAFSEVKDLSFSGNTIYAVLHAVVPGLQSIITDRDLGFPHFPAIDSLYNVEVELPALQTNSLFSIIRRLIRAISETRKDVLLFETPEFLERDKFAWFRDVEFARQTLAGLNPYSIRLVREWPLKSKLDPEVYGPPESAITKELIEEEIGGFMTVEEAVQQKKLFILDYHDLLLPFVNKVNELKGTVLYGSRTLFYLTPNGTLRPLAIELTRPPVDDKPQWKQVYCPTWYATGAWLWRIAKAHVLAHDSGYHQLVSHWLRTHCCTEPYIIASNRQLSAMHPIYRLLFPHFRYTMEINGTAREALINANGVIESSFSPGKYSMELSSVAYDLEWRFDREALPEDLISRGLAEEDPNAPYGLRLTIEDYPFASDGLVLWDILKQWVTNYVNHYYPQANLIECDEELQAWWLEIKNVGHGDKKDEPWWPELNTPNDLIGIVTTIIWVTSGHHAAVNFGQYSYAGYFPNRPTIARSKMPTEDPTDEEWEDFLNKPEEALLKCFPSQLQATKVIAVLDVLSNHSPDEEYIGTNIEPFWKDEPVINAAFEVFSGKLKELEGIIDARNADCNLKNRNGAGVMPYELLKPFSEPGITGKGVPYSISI
Experiment: hydroperoxide formation at […] nm; products by HPLC
Assay type: biochemical
Details: pH 6.0, room temperature, oxygenated phosphate buffer, partially purified enzyme

SMILES | hydroperoxide formation at 234 nm; products by HPLC (product 13-HPOD, weaker substrate) | hydroperoxide formation at 234 nm; products by HPLC (product 13-HPOT, preferred substrate)
CCCCC/C=C\C/C=C\CCCCCCCC(=O)O [C18:2, linoleic acid] | Partially-purified TOMLOXF showed a higher activity on linolenic acid than on linoleic acid | –
CC/C=C\C/C=C\C/C=C\CCCCCCCC(=O)O [C18:3, linolenic acid] | – | Partially-purified TOMLOXF showed a higher activity on linolenic acid than on linoleic acid
